The values below come from patent US20030232063A1, “Aminosulfonic acid compounds for promoting desquamation of the skin” (SOCIETE L'OREAL S.A., priority 2000, published 2003).

Assay [1] deals with corneodesmosine. Description: Degradation of corneodesmosines in acetonic powders of stratum corneum (immunoblotting with antibody G36-19, chemiluminescence). The class given is biochemical, human. Particulars: aqueous solution containing 2% of active agent, pH 8.0, 17 h incubation at 30° C., 33 and 46 kD bands, versus control without active agent. For orientation: In western blotting, separated proteins are transferred to a membrane and probed.
Procedure: Method for evaluating desquamation by measuring the degradation of corneodesmosines The ability of aminosulfonic derivatives of formula (I) according to the invention to promote desquamation by degradation of corneodesmosines is studied in this example. […] It is studied by immunoblotting after separation by electrophoresis and transfer onto a membrane. […] The nylon-varnish strips associated with the corneocytes are immersed in 1 ml/cm^2 of acetone in order to detach the corneocytes. The mixture is filtered and then rinsed three times with the same volume of acetone in order to remove all trace of varnish. Finally, the mixture is dried under vacuum: acetonic powders of stratum corneum are thus obtained. The acetonic powders are divided into 1 mg aliquots. 100 μl of the aqueous solutions containing 2% of active agent adjusted to pH 8.0 are added. […] Two incubation times are studied: t=0 and t=17 h. In the latter case, the incubation takes place at 30° C. with stirring. After incubation, the mixtures are centrifuged for 10 minutes at 10 000×g. The supernatant is removed and replaced with 100 μl of 0.0625 M Tris/HCl pH 6.8 Laemmli buffer, 2% SDS, 200 mM DTT, 10% glycerol, which allows the proteins to be extracted. The mixture is boiled for 10 minutes at 100° C. and then ground in a Potter mill. The mixture is centrifuged for 10 minutes at 10 000×g and the supernatant is then collected. It contains the corneodesmosomal proteins. The total proteins are assayed according to the Bradford method (Biorad kit). This allows an adjustment to 0.6 mg/ml of the samples and a real comparison of the treatments. The samples and also a Rainbow (Amersham Pharmacia Biotech) low molecular weight standard at 1⁄3 are separated by electrophoresis on gel containing 12% acrylamide for 30 minutes at 100 V and then for 1 hour at 200 V. After the electrophoresis, the proteins are transferred onto an Immobilon-P membrane (Millipore) for 3 hours at 60 V. The membrane is then incubated for twice 15 minutes in TBS-TL buffer: 25 mM Tris, 0.15M NaCi pH 7.2, 0.05% Tween 20, 0.5% skimmed milk powder, in order to block the non-specific sites. Incubation with the antibody [MUT]-19 at 1/12500 is performed overnight at 4° C. After two rinses of 5 minutes in TBS-TL buffer, the membrane is incubated with a goat anti-mouse IG(H+L) antibody peroxidase conjugate (Biorad) at 1/4000 for 1 hour 30 minutes at ambient temperature. After several rinses of 5 minutes in TBS-TL buffer and then TBS buffer (without milk or Tween), the membrane is incubated for 1 minute in 10 ml of ECL reagent (Amersham Pharmacia Biotech). The chemiluminescence of the corneodesmosine bands is measured with the FluorS Multimager (Biorad). The 33 and 46 kD bands are quantified with the Quantity-one software (Biorad). […] This control takes into account the natural degradation of the corneodesmosines which takes place during the incubation.

In assay [2] the test system is desmoglein (corneodesmosomal protein). Particulars: shown in EP-A2-0,852,949 (Shiseido); cited from earlier work.

For `O=S(=O)(O)CC(O)CN1CCN(CC(O)CS(=O)(=O)O)CC1` (stereo not drawn) [piperazine-1,4-bis(2-hydroxypropanesulfonic acid)], in assay [1], the “Percentage increase in the degradation of corneodesmosine” value (“Percentage increase in the degradation” for short) came to 63%. The same measure, in the same setting: the figure for `O=S(=O)(O)CCCN1CCOCC1` [3-Morpholinopropanesulfonic acid, 3-morpholinopropanesulfonic acid] is 39%. Turning to `NCC(=O)O` [Glycine, reference compound], the “Percentage increase in the degradation” value in assay [1] is 51%. In addition, in assay [2], the “Effect on the degradation of desmoglein (in words)” value was “promotes the degradation of desmoglein”. As for `O=S(=O)(O)CCN1CCN(CCS(=O)(=O)O)CC1` [piperazine-1,4-bis(2-ethanesulfonic acid)], the “Percentage increase in the degradation” value in assay [1] is 65%. On the same count and under the same terms, as for `O=S(=O)(O)CCN1CCN(CCO)CC1` [4-(2-hydroxyethyl)piperazine-1-ethanesulfonic acid], the figure is 65%.
